Test results: PubChem BioAssay AID1963873 (Molecular Pharmacology Branch, DTP, NCI, 2024)

Test system: 276233-004-R-J1-PDC KRAS spheroids with HUVEC/MSC, viability
Assay: Anticancer human tumor 276233-004-R-J1-PDC patient-derived colon adenocarcinoma cell line growth inhibition [KRAS2]
Details: for IC50: curve of first compound; for viability, T/C: stronger effect = lower value
Method in brief: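 Combination screen of spheroid viability in tumor-cell co-cultures with endothelial (HUVEC) and mesenchymal stem cell stroma. Each agent was tested in half-log dilutions, topping at clinical Cmax or at 10 microM without a known Cmax.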

[1] = second compound 0.1 µM, first compound 0.01 µM
[2] = second compound 0.1 µM, first compound 0.0316 µM
[3] = second compound 0.316 µM, first compound 0.01 µM
[4] = second compound 0.316 µM, first compound 0.0316 µM
[5] = second compound 1 µM, first compound 0.01 µM
[6] = second compound 1 µM, first compound 0.0316 µM
[7] = second compound 3.16 µM, first compound 0.01 µM
[8] = second compound 3.16 µM, first compound 0.0316 µM
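Also: cells exposed to agents for seven days before viability read.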
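For viability, T/C in this document: 100% = DMSO vehicle control wells and lower values mean fewer viable cells.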

CC(=O)OC12COC1CC(O)C1(C)C(=O)C(O)C3=C(C)C(OC(=O)C(O)C(NC(=O)OC(C)(C)C)c4ccccc4)CC(O)(C(OC(=O)c4ccccc4)C21)C3(C)C (stereo not given) + C=CC(=O)N1CCN(c2nc(OCC3CCCN3C)nc3c2CCN(c2cccc4cccc(C)c24)C3)CC1CC#N
IC50 (second compound 0.0316 µM): > 3160 nM
IC50 (second compound 0.1 µM): > 3160 nM
IC50 (second compound 0.316 µM): > 3160 nM
IC50 (second compound 1 µM): > 3160 nM
IC50 (second compound 3.16 µM): > 3160 nM
viability, T/C (second compound 0.0316 µM, first compound 0.01 µM): 82.1%
viability, T/C (second compound 0.0316 µM, first compound 0.0316 µM): 90.6%
viability, T/C (second compound 0.0316 µM, first compound 0.1 µM): 103%
viability, T/C (second compound 0.0316 µM, first compound 0.316 µM): 96%
viability, T/C (second compound 0.0316 µM, first compound 1 µM): 112%
viability, T/C (second compound 0.0316 µM, first compound 3.16 µM): 94.8%
viability, T/C [1]: 96.7%
viability, T/C [2]: 96.3%
viability, T/C (second compound 0.1 µM, first compound 0.1 µM): 76.4%
viability, T/C (second compound 0.1 µM, first compound 0.316 µM): 86.8%
viability, T/C (second compound 0.1 µM, first compound 1 µM): 91.5%
viability, T/C (second compound 0.1 µM, first compound 3.16 µM): 95.5%
viability, T/C [3]: 97.8%
viability, T/C [4]: 83.4%
viability, T/C (second compound 0.316 µM, first compound 0.1 µM): 73.6%
viability, T/C (second compound 0.316 µM, first compound 0.316 µM): 72.2%
viability, T/C (second compound 0.316 µM, first compound 1 µM): 99%
viability, T/C (second compound 0.316 µM, first compound 3.16 µM): 107%
viability, T/C [5]: 84.4%
viability, T/C [6]: 79.3%
viability, T/C (second compound 1 µM, first compound 0.1 µM): 75.8%
viability, T/C (second compound 1 µM, first compound 0.316 µM): 71.3%
viability, T/C (second compound 1 µM, first compound 1 µM): 93.3%
viability, T/C (second compound 1 µM, first compound 3.16 µM): 98.2%
viability, T/C [7]: 103%
viability, T/C [8]: 87.8%
viability, T/C (second compound 3.16 µM, first compound 0.1 µM): 88.4%
viability, T/C (second compound 3.16 µM, first compound 0.316 µM): 87.2%
viability, T/C (second compound 3.16 µM, first compound 1 µM): 95.7%
viability, T/C (second compound 3.16 µM, first compound 3.16 µM): 112%

CC(=O)Nc1cccc(-n2c(=O)n(C3CC3)c(=O)c3c(Nc4ccc(I)cc4F)n(C)c(=O)c(C)c32)c1 + CC1OCC2(CCN(c3cnc(Sc4ccnc(N)c4Cl)c(N)n3)CC2)C1N
IC50 (second compound 0.1 µM): 4.28 nM
IC50 (second compound 0.316 µM): 2.46 nM
IC50 (second compound 1 µM): 0.405 nM
IC50 (second compound 3.16 µM): < 0.1 nM
IC50 (second compound 10 µM): < 0.1 nM
viability, T/C (second compound 0.1 µM, first compound 0.0001 µM): 78.4%
viability, T/C (second compound 0.1 µM, first compound 0.000316 µM): 87.2%
viability, T/C (second compound 0.1 µM, first compound 0.001 µM): 65.8%
viability, T/C (second compound 0.1 µM, first compound 0.00316 µM): 55.5%
viability, T/C [1]: 35.6%
viability, T/C [2]: 13.1%
viability, T/C (second compound 0.316 µM, first compound 0.0001 µM): 67%
viability, T/C (second compound 0.316 µM, first compound 0.000316 µM): 74.1%
viability, T/C (second compound 0.316 µM, first compound 0.001 µM): 61%
viability, T/C (second compound 0.316 µM, first compound 0.00316 µM): 45.5%
viability, T/C [3]: 28%
viability, T/C [4]: 13.5%
viability, T/C (second compound 1 µM, first compound 0.0001 µM): 57.4%
viability, T/C (second compound 1 µM, first compound 0.000316 µM): 55.4%
viability, T/C (second compound 1 µM, first compound 0.001 µM): 42.6%
viability, T/C (second compound 1 µM, first compound 0.00316 µM): 28.4%
viability, T/C [5]: 27.4%
viability, T/C [6]: 7.28%
viability, T/C (second compound 3.16 µM, first compound 0.0001 µM): 39.7%
viability, T/C (second compound 3.16 µM, first compound 0.000316 µM): 31.9%
viability, T/C (second compound 3.16 µM, first compound 0.001 µM): 23.3%
viability, T/C (second compound 3.16 µM, first compound 0.00316 µM): 12.7%
viability, T/C [7]: 9.04%
viability, T/C [8]: 5.79%
viability, T/C (second compound 10 µM, first compound 0.0001 µM): 31.4%
viability, T/C (second compound 10 µM, first compound 0.000316 µM): 23.7%
viability, T/C (second compound 10 µM, first compound 0.001 µM): 14.7%
viability, T/C (second compound 10 µM, first compound 0.00316 µM): 10.9%
viability, T/C (second compound 10 µM, first compound 0.01 µM): 17.6%
viability, T/C (second compound 10 µM, first compound 0.0316 µM): 8.53%
